Tests used:
[1] = target: Adenosine receptor A2a (Homo sapiens, UniProt P29274)
[2] = target: T1, Alpha-2C adrenergic receptor (Homo sapiens, UniProt P18825); assay type: functional
T1 sequence (P18825 whole entry): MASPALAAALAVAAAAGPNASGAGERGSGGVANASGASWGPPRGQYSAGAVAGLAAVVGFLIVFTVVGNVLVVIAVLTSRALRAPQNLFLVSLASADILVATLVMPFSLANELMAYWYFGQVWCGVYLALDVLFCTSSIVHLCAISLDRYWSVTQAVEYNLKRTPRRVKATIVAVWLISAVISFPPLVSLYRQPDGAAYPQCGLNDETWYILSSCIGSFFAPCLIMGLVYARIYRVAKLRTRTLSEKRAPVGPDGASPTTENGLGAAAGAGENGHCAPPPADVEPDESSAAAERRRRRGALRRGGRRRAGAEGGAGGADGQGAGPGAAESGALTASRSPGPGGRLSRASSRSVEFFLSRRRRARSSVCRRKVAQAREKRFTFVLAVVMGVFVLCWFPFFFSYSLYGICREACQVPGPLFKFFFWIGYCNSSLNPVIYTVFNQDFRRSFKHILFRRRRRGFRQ

[3] = target: Vasopressin V2 receptor (Homo sapiens, UniProt P30518)
[4] = target: T2, B2 bradykinin receptor (Homo sapiens, UniProt P30411)
T2 sequence (P30411 whole entry): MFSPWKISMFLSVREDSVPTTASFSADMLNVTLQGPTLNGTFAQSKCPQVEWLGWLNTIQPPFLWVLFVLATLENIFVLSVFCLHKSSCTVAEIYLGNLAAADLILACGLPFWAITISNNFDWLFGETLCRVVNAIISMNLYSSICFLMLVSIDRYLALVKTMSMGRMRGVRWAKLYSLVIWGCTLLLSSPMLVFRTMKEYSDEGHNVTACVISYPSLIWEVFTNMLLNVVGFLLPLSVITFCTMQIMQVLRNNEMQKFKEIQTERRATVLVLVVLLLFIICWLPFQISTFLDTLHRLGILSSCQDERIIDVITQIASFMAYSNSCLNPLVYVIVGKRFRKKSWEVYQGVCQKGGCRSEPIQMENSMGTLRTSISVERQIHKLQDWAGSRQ

[5] = target: T3, Cholecystokinin receptor type A (Homo sapiens, UniProt P32238)
T3 sequence (P32238 whole entry): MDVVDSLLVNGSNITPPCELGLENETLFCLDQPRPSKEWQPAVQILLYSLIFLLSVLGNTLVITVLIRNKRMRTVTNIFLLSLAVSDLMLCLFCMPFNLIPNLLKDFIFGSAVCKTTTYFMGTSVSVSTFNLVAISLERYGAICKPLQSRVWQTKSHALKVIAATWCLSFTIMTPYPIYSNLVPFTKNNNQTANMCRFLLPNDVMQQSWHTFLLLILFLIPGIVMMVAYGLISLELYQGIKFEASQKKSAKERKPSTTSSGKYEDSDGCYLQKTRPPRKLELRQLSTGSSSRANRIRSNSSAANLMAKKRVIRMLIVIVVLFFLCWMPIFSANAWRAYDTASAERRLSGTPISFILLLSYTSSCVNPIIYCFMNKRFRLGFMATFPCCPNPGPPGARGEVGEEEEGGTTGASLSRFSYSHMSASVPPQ

[6] = target: Neuronal acetylcholine receptor subunit alpha-4 (Homo sapiens, UniProt P43681)
[7] = target: Growth hormone secretagogue receptor type 1 (Homo sapiens, UniProt Q92847)
[8] = target: Histamine H2 receptor (Homo sapiens, UniProt P25021); assay type: functional, cell-based
[9] = target: T4, 5-hydroxytryptamine receptor 1A (Homo sapiens, UniProt P08908); assay type: functional, cell-based
T4 sequence (P08908 whole entry): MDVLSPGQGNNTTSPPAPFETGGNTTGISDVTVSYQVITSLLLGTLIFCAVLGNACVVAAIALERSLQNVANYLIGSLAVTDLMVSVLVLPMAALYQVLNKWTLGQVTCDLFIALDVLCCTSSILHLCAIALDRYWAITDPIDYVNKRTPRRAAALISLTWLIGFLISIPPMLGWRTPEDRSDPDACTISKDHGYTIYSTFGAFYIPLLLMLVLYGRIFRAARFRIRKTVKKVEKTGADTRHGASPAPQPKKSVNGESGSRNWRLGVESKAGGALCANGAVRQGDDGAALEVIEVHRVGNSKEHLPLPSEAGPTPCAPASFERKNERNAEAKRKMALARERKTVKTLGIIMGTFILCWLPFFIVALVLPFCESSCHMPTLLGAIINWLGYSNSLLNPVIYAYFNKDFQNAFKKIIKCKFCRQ

[10] = target: Voltage-gated inwardly rectifying potassium channel KCNH2 (Homo sapiens, UniProt Q12809); assay type: functional
[11] = target: 3',5'-cyclic-AMP phosphodiesterase 4D (Homo sapiens, UniProt Q08499); assay type: functional
[12] = target: T5, Amine oxidase [flavin-containing] A (Homo sapiens, UniProt P21397); assay type: functional
T5 sequence (P21397 whole entry): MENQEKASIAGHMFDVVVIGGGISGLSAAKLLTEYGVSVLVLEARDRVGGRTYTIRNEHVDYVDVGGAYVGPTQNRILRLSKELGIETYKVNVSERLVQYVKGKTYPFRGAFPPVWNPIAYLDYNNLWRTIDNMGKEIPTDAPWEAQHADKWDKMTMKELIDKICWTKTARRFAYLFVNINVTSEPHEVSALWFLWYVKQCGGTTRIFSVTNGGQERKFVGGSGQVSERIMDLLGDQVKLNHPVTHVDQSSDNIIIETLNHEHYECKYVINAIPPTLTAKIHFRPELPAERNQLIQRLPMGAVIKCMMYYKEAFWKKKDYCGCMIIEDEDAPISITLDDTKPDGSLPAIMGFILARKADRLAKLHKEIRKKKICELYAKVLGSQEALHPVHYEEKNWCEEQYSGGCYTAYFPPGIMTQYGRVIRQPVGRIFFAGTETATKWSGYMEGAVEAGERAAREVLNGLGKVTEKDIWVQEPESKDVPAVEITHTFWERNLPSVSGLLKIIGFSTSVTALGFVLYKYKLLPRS

[13] = target: cGMP-inhibited 3',5'-cyclic phosphodiesterase 3A (Homo sapiens, UniProt Q14432); assay type: functional
[14] = target: D(3) dopamine receptor (Homo sapiens, UniProt P35462)
Further: assay procedure not described here.

Adenosine receptor A2a, sequence (P29274 whole entry): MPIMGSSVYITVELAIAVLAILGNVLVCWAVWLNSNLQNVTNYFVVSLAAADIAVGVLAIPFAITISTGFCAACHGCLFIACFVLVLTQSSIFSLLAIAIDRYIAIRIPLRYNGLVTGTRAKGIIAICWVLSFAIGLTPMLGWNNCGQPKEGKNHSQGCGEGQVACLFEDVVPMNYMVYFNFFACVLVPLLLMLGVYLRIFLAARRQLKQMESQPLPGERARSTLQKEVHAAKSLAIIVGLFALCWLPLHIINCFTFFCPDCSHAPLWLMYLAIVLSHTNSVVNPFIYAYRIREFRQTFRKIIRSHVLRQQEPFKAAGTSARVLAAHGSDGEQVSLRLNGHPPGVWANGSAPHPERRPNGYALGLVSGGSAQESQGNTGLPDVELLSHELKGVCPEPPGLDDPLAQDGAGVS
Voltage-gated inwardly rectifying potassium channel KCNH2, sequence (Q12809 whole entry): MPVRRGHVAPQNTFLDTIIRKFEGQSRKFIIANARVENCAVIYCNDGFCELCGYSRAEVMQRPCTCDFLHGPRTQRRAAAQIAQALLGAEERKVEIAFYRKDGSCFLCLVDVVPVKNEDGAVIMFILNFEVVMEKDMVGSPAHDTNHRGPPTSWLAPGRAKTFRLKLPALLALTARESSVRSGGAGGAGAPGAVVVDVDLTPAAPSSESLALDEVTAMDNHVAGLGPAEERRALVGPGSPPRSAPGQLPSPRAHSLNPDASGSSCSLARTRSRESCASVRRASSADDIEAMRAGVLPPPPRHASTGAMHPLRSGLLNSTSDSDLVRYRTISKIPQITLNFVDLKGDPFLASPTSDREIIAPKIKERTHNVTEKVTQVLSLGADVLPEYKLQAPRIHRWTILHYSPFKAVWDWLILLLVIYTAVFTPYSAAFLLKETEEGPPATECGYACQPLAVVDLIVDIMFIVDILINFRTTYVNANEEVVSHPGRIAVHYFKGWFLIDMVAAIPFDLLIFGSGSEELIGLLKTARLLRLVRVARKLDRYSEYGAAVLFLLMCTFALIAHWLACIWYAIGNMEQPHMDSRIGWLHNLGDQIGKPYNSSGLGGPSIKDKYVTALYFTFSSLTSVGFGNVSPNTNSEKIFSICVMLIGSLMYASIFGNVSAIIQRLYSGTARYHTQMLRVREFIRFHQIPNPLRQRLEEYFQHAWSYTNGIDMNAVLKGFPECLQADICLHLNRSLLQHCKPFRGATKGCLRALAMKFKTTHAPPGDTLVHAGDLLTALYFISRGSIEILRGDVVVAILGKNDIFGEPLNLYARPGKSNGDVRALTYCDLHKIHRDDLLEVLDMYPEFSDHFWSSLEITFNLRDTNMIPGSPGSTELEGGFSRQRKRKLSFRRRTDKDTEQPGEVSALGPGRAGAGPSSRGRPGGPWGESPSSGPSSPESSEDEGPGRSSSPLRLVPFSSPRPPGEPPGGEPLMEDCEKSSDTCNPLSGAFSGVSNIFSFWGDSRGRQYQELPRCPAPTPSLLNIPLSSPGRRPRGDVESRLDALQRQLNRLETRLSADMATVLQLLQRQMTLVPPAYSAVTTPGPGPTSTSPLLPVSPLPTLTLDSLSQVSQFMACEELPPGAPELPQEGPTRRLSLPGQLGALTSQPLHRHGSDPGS
Vasopressin V2 receptor, sequence (P30518 whole entry): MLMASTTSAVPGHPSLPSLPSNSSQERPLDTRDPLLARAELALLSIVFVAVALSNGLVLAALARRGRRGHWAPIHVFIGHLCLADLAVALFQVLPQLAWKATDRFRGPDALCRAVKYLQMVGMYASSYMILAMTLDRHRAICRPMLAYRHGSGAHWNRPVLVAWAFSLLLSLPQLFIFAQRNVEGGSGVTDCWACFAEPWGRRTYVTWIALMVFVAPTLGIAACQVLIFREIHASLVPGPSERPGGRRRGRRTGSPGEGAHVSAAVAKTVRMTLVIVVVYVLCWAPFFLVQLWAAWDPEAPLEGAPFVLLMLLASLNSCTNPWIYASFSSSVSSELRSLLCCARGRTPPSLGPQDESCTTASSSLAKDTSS
Histamine H2 receptor, sequence (P25021 whole entry): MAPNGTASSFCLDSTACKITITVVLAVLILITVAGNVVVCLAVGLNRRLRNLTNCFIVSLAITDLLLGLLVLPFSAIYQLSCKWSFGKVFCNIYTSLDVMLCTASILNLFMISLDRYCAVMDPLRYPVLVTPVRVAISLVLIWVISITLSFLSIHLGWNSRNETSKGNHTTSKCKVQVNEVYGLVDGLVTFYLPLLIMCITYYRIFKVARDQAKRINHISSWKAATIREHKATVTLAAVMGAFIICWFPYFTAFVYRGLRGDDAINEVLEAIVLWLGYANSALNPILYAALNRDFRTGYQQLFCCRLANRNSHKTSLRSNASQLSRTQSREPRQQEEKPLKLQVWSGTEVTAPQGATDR
Neuronal acetylcholine receptor subunit alpha-4, sequence (P43681 whole entry): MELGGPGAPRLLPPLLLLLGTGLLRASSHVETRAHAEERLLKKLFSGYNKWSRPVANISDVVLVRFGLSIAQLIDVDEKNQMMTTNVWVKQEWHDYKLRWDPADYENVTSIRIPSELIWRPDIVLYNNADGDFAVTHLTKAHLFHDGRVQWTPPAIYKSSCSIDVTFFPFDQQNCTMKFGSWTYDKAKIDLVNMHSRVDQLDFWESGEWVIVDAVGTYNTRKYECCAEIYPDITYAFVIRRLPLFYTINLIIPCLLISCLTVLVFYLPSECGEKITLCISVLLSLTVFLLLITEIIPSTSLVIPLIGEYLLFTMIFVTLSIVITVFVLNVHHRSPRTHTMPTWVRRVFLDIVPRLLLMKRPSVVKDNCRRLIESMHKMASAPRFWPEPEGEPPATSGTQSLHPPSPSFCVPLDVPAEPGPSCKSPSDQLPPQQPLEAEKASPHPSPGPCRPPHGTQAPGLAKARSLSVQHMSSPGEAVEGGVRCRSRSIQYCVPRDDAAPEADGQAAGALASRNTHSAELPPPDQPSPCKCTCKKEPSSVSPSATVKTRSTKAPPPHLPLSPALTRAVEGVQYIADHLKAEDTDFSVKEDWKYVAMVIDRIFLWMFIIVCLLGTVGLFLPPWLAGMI
3',5'-cyclic-AMP phosphodiesterase 4D, sequence (Q08499 whole entry): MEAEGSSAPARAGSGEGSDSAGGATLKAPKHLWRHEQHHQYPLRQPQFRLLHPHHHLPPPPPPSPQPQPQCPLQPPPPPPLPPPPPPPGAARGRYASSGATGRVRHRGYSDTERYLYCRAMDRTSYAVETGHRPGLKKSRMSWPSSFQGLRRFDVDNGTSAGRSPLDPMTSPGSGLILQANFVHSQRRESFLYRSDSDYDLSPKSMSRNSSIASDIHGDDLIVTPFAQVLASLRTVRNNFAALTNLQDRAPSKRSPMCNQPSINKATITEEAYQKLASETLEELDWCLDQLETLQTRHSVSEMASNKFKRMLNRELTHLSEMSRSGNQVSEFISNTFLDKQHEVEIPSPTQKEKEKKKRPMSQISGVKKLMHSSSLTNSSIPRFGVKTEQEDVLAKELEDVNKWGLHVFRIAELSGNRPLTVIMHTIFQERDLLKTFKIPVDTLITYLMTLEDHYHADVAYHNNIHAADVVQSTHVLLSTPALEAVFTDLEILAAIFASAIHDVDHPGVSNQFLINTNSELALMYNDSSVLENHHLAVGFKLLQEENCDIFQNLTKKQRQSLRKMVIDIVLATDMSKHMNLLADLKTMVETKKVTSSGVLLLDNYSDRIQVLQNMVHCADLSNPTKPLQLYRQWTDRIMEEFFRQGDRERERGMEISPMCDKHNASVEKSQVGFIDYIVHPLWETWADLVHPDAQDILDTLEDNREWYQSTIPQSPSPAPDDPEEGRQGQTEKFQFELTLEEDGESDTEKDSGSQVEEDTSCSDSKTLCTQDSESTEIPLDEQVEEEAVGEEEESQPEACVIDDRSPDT
cGMP-inhibited 3',5'-cyclic phosphodiesterase 3A, sequence (Q14432 whole entry): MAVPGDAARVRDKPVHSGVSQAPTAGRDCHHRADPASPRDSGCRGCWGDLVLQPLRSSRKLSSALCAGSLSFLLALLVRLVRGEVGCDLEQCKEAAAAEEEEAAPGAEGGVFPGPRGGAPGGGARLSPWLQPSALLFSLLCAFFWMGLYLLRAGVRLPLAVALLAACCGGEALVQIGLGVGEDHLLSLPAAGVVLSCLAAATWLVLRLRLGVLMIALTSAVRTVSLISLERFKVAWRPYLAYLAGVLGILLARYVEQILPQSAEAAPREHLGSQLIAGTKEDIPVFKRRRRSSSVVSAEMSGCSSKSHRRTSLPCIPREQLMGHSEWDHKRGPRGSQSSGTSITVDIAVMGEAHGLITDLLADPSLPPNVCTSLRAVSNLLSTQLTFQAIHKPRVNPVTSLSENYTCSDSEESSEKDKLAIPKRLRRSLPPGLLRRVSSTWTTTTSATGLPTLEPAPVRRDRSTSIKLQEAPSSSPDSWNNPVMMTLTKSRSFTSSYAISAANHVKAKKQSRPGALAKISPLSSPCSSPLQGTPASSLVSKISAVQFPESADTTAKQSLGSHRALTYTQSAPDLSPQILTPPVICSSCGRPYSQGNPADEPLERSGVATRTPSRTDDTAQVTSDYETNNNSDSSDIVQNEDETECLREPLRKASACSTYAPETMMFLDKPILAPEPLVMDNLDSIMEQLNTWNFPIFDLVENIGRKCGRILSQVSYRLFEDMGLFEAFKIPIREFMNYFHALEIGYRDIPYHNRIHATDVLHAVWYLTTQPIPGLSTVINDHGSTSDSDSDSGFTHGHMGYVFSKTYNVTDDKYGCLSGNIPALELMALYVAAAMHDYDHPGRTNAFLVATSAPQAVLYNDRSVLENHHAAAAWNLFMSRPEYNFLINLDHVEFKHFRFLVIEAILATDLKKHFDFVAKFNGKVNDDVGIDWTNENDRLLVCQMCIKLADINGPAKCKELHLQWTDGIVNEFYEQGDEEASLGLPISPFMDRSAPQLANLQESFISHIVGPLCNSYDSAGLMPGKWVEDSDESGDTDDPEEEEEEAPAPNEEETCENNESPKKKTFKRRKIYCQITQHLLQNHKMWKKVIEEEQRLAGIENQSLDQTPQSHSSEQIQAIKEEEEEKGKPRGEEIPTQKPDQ

SMILES | AC50 [1] | AC50 [2] | AC50 [3] | AC50 [4] | AC50 [5] | AC50 [6] | AC50 [7] | AC50 [8] | AC50 [9] | AC50 [10] | AC50 [11] | AC50 [12] | AC50 [13] | AC50 [14]
CCCC(CCC)C(N)=O [VALPROMIDE] | > 30 µM | > 10 µM | > 30 µM | > 30 µM | > 30 µM | > 10 µM | > 30 µM | > 10 µM | > 30 µM | > 30 µM | > 30 µM | > 10 µM | > 30 µM | > 30 µM
Cc1cc(C(C)(C)C)cc(C)c1CC1=NCCN1 [XYLOMETAZOLINE] | > 30 µM | 0.239 µM | > 30 µM | > 30 µM | > 30 µM | > 30 µM | > 30 µM | > 30 µM | 0.0178 µM | 5.2 µM | > 30 µM | > 30 µM | > 30 µM | 3.87 µM
CCCCC1C(=O)N(c2ccccc2)N(c2ccccc2)C1=O [PHENYLBUTAZONE] | > 30 µM | > 10 µM | > 30 µM | > 30 µM | > 30 µM | > 30 µM | > 30 µM | > 10 µM | > 10 µM | > 30 µM | > 30 µM | > 10 µM | > 30 µM | > 30 µM
CC(C)(C)C(=O)OCC(=O)[C@H]1CC[C@H]2[C@@H]3CCC4=CC(=O)CC[C@]4(C)[C@H]3CC[C@]12C [DESOXYCORTICOSTERONE PIVALATE] | > 10 µM | > 10 µM | > 10 µM | > 10 µM | > 10 µM | > 10 µM | > 10 µM | > 10 µM | > 10 µM | > 30 µM | > 30 µM | > 10 µM | > 30 µM | > 30 µM
C/N=C(\NC)NCc1ccccc1 [BETHANIDINE] | > 30 µM | > 30 µM | > 30 µM | > 30 µM | > 30 µM | > 30 µM | > 30 µM | > 30 µM | > 30 µM | > 30 µM | > 30 µM | > 30 µM | > 30 µM | > 30 µM
CC(C(=O)O)c1ccc(CC2CCCC2=O)cc1 (centres undefined) [LOXOPROFEN] | > 30 µM | > 30 µM | > 30 µM | > 30 µM | > 30 µM | > 30 µM | > 30 µM | > 30 µM | > 30 µM | > 30 µM | > 30 µM | > 30 µM | > 30 µM | > 30 µM
CCC(=O)O[C@H]1CC[C@H]2[C@@H]3CCC4=CC(=O)CC[C@]4(C)[C@H]3CC[C@]12C [TESTOSTERONE PROPIONATE] | > 10 µM | > 10 µM | > 10 µM | > 10 µM | > 10 µM | > 10 µM | > 10 µM | > 10 µM | > 10 µM | > 30 µM | > 30 µM | > 10 µM | > 10 µM | > 30 µM
[H]/N=C(/N)N/C(=N/[H])NCCc1ccccc1 [PHENFORMIN] | > 30 µM | > 30 µM | > 30 µM | > 30 µM | > 30 µM | > 10 µM | > 30 µM | > 30 µM | > 30 µM | > 30 µM | > 30 µM | > 30 µM | 22 µM | > 30 µM
CCOC(=O)c1cncn1[C@H](C)c1ccccc1 [ETOMIDATE] | > 10 µM | > 10 µM | > 10 µM | > 10 µM | > 10 µM | > 10 µM | > 10 µM | > 10 µM | > 10 µM | > 30 µM | > 30 µM | > 10 µM | > 30 µM | > 30 µM
CNC1=Nc2ccc(Cl)cc2C(c2ccccc2)=[N+]([O-])C1 [CHLORDIAZEPOXIDE] | > 30 µM | > 10 µM | > 30 µM | > 30 µM | > 30 µM | > 10 µM | > 30 µM | > 30 µM | > 30 µM | > 30 µM | > 10 µM | > 10 µM | > 30 µM | > 30 µM
Nc1ncn([C@H]2C[C@H](O)[C@@H](CO)O2)c(=O)n1 [DECITABINE] | > 30 µM | > 30 µM | > 30 µM | > 30 µM | > 30 µM | > 30 µM | > 30 µM | > 30 µM | > 30 µM | > 30 µM | > 30 µM | > 30 µM | > 30 µM | > 30 µM
